Test results reported in PMC8951032, “Study of Biological Activities and ADMET-Related Properties of Novel Chlorinated N-arylcinnamamides” (International Journal of Molecular Sciences, 2022).
Converted amounts (≈) assume the structure as drawn. Read-outs that look alike come from different tables or passages of the source.

Legend:
[1] = system: methicillin-resistant S. aureus (MRSA) 63718; assay: In vitro antistaphylococcal activity, microtitration broth MIC; format: cell-based; conditions: Staphylococcus aureus
[2] = system: Mycobacterium marinum CAMP 5644; assay: In vitro antimycobacterial activity, broth dilution MIC; format: cell-based; conditions: CAMP5644, 504 h
[3] = system: S. aureus, MRSA, E. faecalis, VRE, M. smegmatis, M. marinum; assay: In vitro antimicrobial screening, all tested strains; format: cell-based; conditions: antibacterial/antimycobacterial screening
[4] = system: human monocytic leukemia cell line THP-1; assay: In vitro cell viability, CCK-8; format: cell-based; conditions: Homo sapiens, THP-1
Protocol: (§1) The effect of the compounds on viability of eukaryotic cells was evaluated on human leukemia cell line THP-1, human synovial cell line SW982, and isolated primary porcine monocytes-delivered macrophages (MDM). The general cytotoxic effect was studied on THP-1 cells in the serum-free medium (only THP-1 as the only cells used in this study are able to survive in serum-free medium). Most of the compounds had no cytotoxic effect on THP-1 cells. […] This could be caused by the direct interaction of such compounds with serum proteins or by the effect of mitogens, cytokines, and hormones present in the serum. Obviously, the full medium is closer to physiological conditions in living organisms, so it can be assumed that these compounds could be non-toxic there.
(§2) Human monocytic leukemia cell line THP-1 and human synovial cell line SW982 were purchased from the European Collection of Cell Cultures (ECACC, Salisbury, UK) and were used for determination of the influence of test compounds on cell viability, as described previously. These cell lines represent typical suspension and adherent cells, respectively. They were cultivated with test substances in the presence or absence of fetal bovine serum (FBS) in the cultivation medium, and the relative cell viability (the ratio between cells treated with compounds and cells treated only with DMSO) was determined by CCK-8 kit (Sigma) after 24 h.

[5] = system: human synovial cell line SW982; assay: In vitro cell viability, CCK-8; format: cell-based; conditions: 10% fetal bovine serum
Protocol: as §1, §2

[6] = system: methicillin-resistant S. aureus SA 630; assay: In vitro antistaphylococcal activity, microtitration broth MIC; format: cell-based; conditions: Staphylococcus aureus
[7] = system: vancomycin-resistant E. faecalis (VRE) 368; assay: In vitro antienterococcal activity, microtitration broth MIC; format: cell-based, Enterococcus faecalis
[8] = system: Mycobacterium smegmatis ATCC 700084; assay: In vitro antimycobacterial activity, broth dilution MIC; format: cell-based; conditions: Mycolicibacterium smegmatis
[9] = system: vancomycin-resistant E. faecalis (VRE) 342B; assay: In vitro antienterococcal activity, microtitration broth MIC; format: cell-based, Enterococcus faecalis; conditions: 24 h
[10] = system: Enterococcus faecalis ATCC 29212; assay: as above; format: cell-based
[11] = system: methicillin-resistant S. aureus SA 3202; assay: In vitro antistaphylococcal activity, microtitration broth MIC; format: cell-based; conditions: Staphylococcus aureus
[12] = Lipophilicity determination by RP-HPLC (log k, log D); format: physicochemical; conditions: for log k: MeOH 72%/H2O 28%; for log D6.5: MeOH 72%/acetate buffered saline pH 6.5; for log D7.4: MeOH 72%/acetate buffered saline pH 7.4
Protocol: In addition to the mentioned ADME profile, it is responsible for interactions with biological targets. Lipophilicity is recognized as one of the most important parameters influencing ADME and bioactivity and is also part, e.g., of Lipinski’s Rule of Five (Ro5). This thermodynamic parameter describing the molecule’s affinity for an aqueous or relatively lipophilic environment can be characterized by the logarithm of the partition coefficient (log P). In this study, lipophilicity was measured by reversed-phase high-performance liquid chromatography (RP-HPLC) under isocratic conditions with methanol as the organic modifier in the aqueous mobile phase and the logarithm of the capacity factor k was calculated, which is used as the lipophilicity index converted to the log P scale. In addition to the log k values, the logarithm of the distribution coefficient DpH at pH 6.5 and 7.4 was determined to clarify the behavior of the compounds under physiological conditions and possible ionization. Instead of water, a buffer of suitable pH was used as part of the mobile phase. In addition to the above-mentioned experimental methods, commercially available ChemBioDraw Ultra 13.0 and ACD/Percepta ver. 2012 programs were used to calculate the lipophilicity values of all prepared compounds.
A HPLC separation module Waters Alliance 2695 XE equipped with a Waters Dual Absorbance Detector 2486 (Waters Corp., Milford, MA, USA) was used. A chromatographic column Symmetry® C18 5 μm, 4.6 × 250 mm, Part No. W21751W016 (Waters Corp., Milford, MA, USA) was used. The HPLC separation process was monitored by Empower® 3 Chromatography Manager Software (Waters Corp.). Isocratic elution by a mixture of MeOH p.a. (72%) and H2O-HPLC Mili-Q grade (28%) as a mobile phase was used for the determination of capacity factor k. Isocratic elution by a mixture of MeOH p.a. (72%) and acetate buffered saline (pH 7.4 and pH 6.5) (28%) as a mobile phase was used for the determination of distribution coefficient expressed as D7.4 and D6.5. The total flow of the column was 1.0 mL/min, injection 20 μL, column temperature 40 °C, and sample temperature 10 °C. The detection wavelength of 210 nm was chosen. A KI methanolic solution was used for the determination of the dead times (tD). Retention times (tR) were measured in minutes. The capacity factors k were calculated according to the formula k = (tR − tD)/tD, where tR is the retention time of the solute, and tD is the dead time obtained using an unretained analyte. The distribution coefficients DpH were calculated according to the formula DpH = (tR − tD)/tD. Each experiment was repeated three times.

[13] = system: vancomycin-resistant E. faecalis (VRE) 725B; assay: In vitro antienterococcal activity, microtitration broth MIC; format: cell-based, Enterococcus faecalis; conditions: 24 h
[14] = 24 h, MRSA 63718, read-out: log(1/MIC [M]) MRSA1 (converted)
[15] = MRSA 63718, 24 h, read-out: MIC MRSA1
[16] = M. marinum CAMP 5644, 21 days, read-out: MIC MM
[17] = M. marinum CAMP 5644, read-out: log(1/MIC [M]) MM (converted)
[18] = 10% fetal bovine serum, 24 h, read-out: IC50 THP-1 10% FSB
[19] = 10% fetal bovine serum, read-out: log(1/IC50 [M]) THP-1 10% FSB (converted)
[20] = serum-free medium, 24 h, read-out: IC50 THP-1 SFM
[21] = serum-free medium, read-out: log(1/IC50 [M]) THP-1 SFM (converted)
[22] = 24 h, read-out: IC50 SW982 10% FSB
[23] = read-out: log(1/IC50 [M]) SW982 10% FSB (converted)
[24] = 24 h, MRSA SA 630, read-out: log(1/MIC [M]) MRSA2 (converted)
[25] = MRSA SA 630, 24 h, read-out: MIC MRSA2
[26] = 24 h, VRE 368, read-out: log(1/MIC [M]) VRE2 (converted)
[27] = VRE 368, 24 h, read-out: MIC VRE2
[28] = ATCC700084, 72 h, M. smegmatis ATCC 700084, three days, read-out: MIC MS
[29] = ATCC700084, M. smegmatis ATCC 700084, read-out: log(1/MIC [M]) MS (converted)
[30] = read-out: log(1/MIC [M]) VRE1 (converted)
[31] = ATCC29212, 24 h, E. faecalis reference strain, read-out: log(1/MIC [M]) EF (converted)
[32] = ATCC29212, E. faecalis reference strain, 24 h, read-out: MIC EF
[33] = 24 h, MRSA SA 3202, read-out: log(1/MIC [M]) MRSA3 (converted)
[34] = MRSA SA 3202, 24 h, read-out: MIC MRSA3
[35] = read-out: log(1/MIC [M]) VRE3 (converted)

MIC [1, 14] | MIC [1, 15] | MIC [2, 16] | MIC [2, 17] | IC50 [4, 18] | IC50 [4, 19] | IC50 [4, 20] | IC50 [4, 21] | IC50 [5, 22] | IC50 [5, 23] | MIC [6, 24] | MIC [6, 25] | MIC [7, 26] | MIC [7, 27] | MIC [8, 28] | MIC [8, 29] | MIC ([9]; read-out: MIC VRE1) | MIC [9, 30] | MIC [10, 31] | Compound | antimicrobial activity (in words) [3] | other results
6.17e-06 M (≈ 2.01 µg/mL) | 6.14e-06 M (≈ 2 µg/mL) | > 0.000786 M | > 0.000794 M | > 1e-05 M | > 1e-05 M | 2.9e-06 ± 1.2e-06 M | 2.88e-06 M | > 1e-05 M | > 1e-05 M | 3.09e-06 M (≈ 1.01 µg/mL) | 3.07e-06 M (≈ 1 µg/mL) | > 0.000794 M | > 0.000786 M | > 0.000786 M | > 0.000794 M | > 0.000786 M | > 0.000794 M | > 0.000794 M | O=C(/C=C/c1ccc(Cl)cc1)Nc1cccc(C(F)(F)F)c1 [1i, (2E)-3-(4-Chlorophenyl)-N-[3-(trifluoromethyl)phenyl]prop-2-enamide] | showed activity | MIC [10, 32]: > 0.000786 M; MIC [11, 33]: 6.17e-06 M (≈ 2.01 µg/mL); MIC [11, 34]: 6.14e-06 M (≈ 2 µg/mL); log k [12]: 0.8612; log D6.5 [12]: 0.8071; log D7.4 [12]: 0.8105; MIC ([13]; read-out: MIC VRE3): > 0.000786 M; MIC [13, 35]: > 0.000794 M
3.8e-07 M (≈ 0.124 µg/mL) | 3.83e-07 M (≈ 0.125 µg/mL) | > 0.000783 M | > 0.000776 M | > 1e-05 M | > 1e-05 M | 2.5e-06 ± 1.1e-06 M | 2.51e-06 M | > 1e-05 M | > 1e-05 M | 3.8e-07 M (≈ 0.124 µg/mL) | 3.83e-07 M (≈ 0.125 µg/mL) | > 0.000776 M | > 0.000783 M | 2.45e-05 M (≈ 8 µg/mL) | 2.45e-05 M (≈ 8.02 µg/mL) | > 0.000783 M | > 0.000776 M | > 0.000776 M | O=C(/C=C/c1ccc(Cl)cc1)Nc1cc(Cl)cc(Cl)c1 [1p, (2E)-3-(4-Chlorophenyl)-N-(3,5-dichlorophenyl)prop-2-enamide] | showed activity | MIC [10, 32]: > 0.000783 M; MIC [11, 33]: 7.59e-07 M (≈ 0.248 µg/mL); MIC [11, 34]: 7.65e-07 M (≈ 0.25 µg/mL); log k [12]: 1.1899; log D6.5 [12]: 1.1368; log D7.4 [12]: 1.1366; MIC ([13]; read-out: MIC VRE3): > 0.000783 M; MIC [13, 35]: > 0.000776 M
